According to PubChem BioAssay (NCI):
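Method: 48-hour compound exposure of cells in 96-well plates, five concentrations, linear interpolation of endpoints. At the GI50, growth is halved. At the TGI there is no net growth.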

Columns and labels:
Assay in all cases: growth of human tumour cells (NCI), 48 h
[1] = tested on: K-562 leukemia
[2] = tested on: NCI-H460 lung
[3] = tested on: NCI-H522 lung
[4] = tested on: SNB-19 CNS
[5] = tested on: SN12C renal
[6] = tested on: HOP-92 NSCLC
[7] = tested on: CCRF-CEM leukemia
[8] = tested on: DU-145 prostate
[9] = tested on: OVCAR-8 ovarian
[10] = tested on: A549 NSCLC
[11] = tested on: SR leukemia
[12] = tested on: UO-31 renal
[13] = tested on: SK-MEL-28 melanoma
[14] = tested on: SW-620 colon
[15] = tested on: MCF7 breast
[16] = tested on: TK-10 renal
[17] = tested on: NCI-H226 lung
[18] = tested on: MDA-MB-231 breast
[19] = tested on: NCI-H23 lung
[20] = tested on: OVCAR-5 ovarian
[21] = tested on: OVCAR-3 ovarian
[22] = tested on: MALME-3M melanoma
[23] = tested on: OVCAR-4 ovarian
[24] = tested on: ACHN renal
[25] = tested on: MOLT-4 leukemia
[26] = tested on: SNB-75 CNS
[27] = tested on: HT29 colon
[28] = tested on: T-47D breast
[29] = tested on: PC-3 prostate
[30] = tested on: RXF 393 renal
[31] = tested on: KM12 colon
[32] = tested on: SK-MEL-2 melanoma
[33] = tested on: HCT-116 colon
[34] = tested on: MDA-MB-435
[35] = tested on: 786-0 renal
[36] = tested on: HL-60(TB) leukemia
[37] = tested on: SF-268 CNS
[38] = tested on: IGROV1 ovarian
[39] = tested on: UACC-257 melanoma
[40] = tested on: M14 melanoma
[41] = tested on: COLO 205 colon
[42] = tested on: HOP-62 NSCLC
[43] = tested on: NCI/ADR-RES ovarian
[44] = tested on: LOX IMVI melanoma
[45] = tested on: BT-549 breast
[46] = tested on: EKVX NSCLC
[47] = tested on: U251 CNS
[48] = tested on: HS 578T breast
[49] = tested on: RPMI-8226 leukemia
[50] = tested on: SF-539 CNS
[51] = tested on: SF-295 CNS
[52] = tested on: UACC-62 melanoma
[53] = tested on: SK-MEL-5 melanoma
[54] = tested on: A498 renal
[55] = tested on: HCT-15 colon
[56] = tested on: HCC-2998 colon
[57] = tested on: CAKI-1 renal
[58] = tested on: SK-OV-3 ovarian

For `c1ccc(-c2nc([P+](c3ccccc3)(c3ccccc3)c3ccccc3)c(N3CCOCC3)o2)cc1`, the GI50 [1] was 439 nM, the TGI [1] was over 74.8 µM and the GI50 [2] was 2480 nM. For the same compound, the TGI [2] was 12 µM, the GI50 [3] was 665 nM and the TGI [3] was 5.43 µM. For the same compound, the GI50 [4] was 483 nM, the TGI [4] was 15 µM and the GI50 [5] was 934 nM. For the same compound, the TGI [5] was 9.15 µM, the GI50 [6] was 446 nM and the TGI [6] was 3.2 µM. For the same compound, the GI50 [7] was 1130 nM, the TGI [7] was 36.6 µM and the GI50 [8] was 1180 nM. The TGI [8] was 12.9 µM, the GI50 [9] was 1180 nM and the TGI [9] was 10.2 µM. The GI50 [10] was 2830 nM, the TGI [10] was 48.6 µM and the GI50 [11] was 655 nM. The TGI [11] was 20 µM, the GI50 [12] was 6.37 µM and the TGI [12] was 25.7 µM. It also gave a GI50 [13] of 704 nM, a TGI [13] of 13.1 µM and a GI50 [14] of 926 nM. For the same compound, the TGI [14] was 20.1 µM, the GI50 [15] was 388 nM and the TGI [15] was 4.15 µM. It also gave a GI50 [16] of 2750 nM, a TGI [16] of 15 µM and a GI50 [17] of 1980 nM. For the same compound, the TGI [17] was 8.5 µM, the GI50 [18] was 920 nM and the TGI [18] was 7.12 µM. For the same compound, the GI50 [19] was 1910 nM, the TGI [19] was 7.24 µM and the GI50 [20] was 2450 nM. It also gave a TGI [20] of 12.8 µM, a GI50 [21] of 474 nM and a TGI [21] of 4.28 µM. The GI50 [22] was 529 nM, the TGI [22] was 6.13 µM and the GI50 [23] was 424 nM. For the same compound, the TGI [23] was 6.27 µM, the GI50 [24] was 3.07 µM and the TGI [24] was 12.7 µM. It also gave a GI50 [25] of 2260 nM, a TGI [25] of 14.8 µM and a GI50 [26] of 393 nM. For the same compound, the TGI [26] was 2730 nM, the GI50 [27] was 715 nM and the TGI [27] was over 33.3 µM. For the same compound, the GI50 [28] was 358 nM, the TGI [28] was 6.81 µM and the GI50 [29] was 450 nM. It also gave a TGI [29] of 5.77 µM, a GI50 [30] of 1590 nM and a TGI [30] of 7.42 µM. It also gave a GI50 [31] of 385 nM, a TGI [31] of 2040 nM and a GI50 [32] of 880 nM. The TGI [32] was 4.03 µM, the GI50 [33] was 1040 nM and the TGI [33] was 10.7 µM. It also gave a GI50 [34] of 445 nM, a TGI [34] of 4.55 µM and a GI50 [35] of 3.92 µM. The TGI [35] was 28.8 µM, the GI50 [36] was 322 nM and the TGI [36] was 1600 nM. The GI50 [37] was 844 nM, the TGI [37] was 11.1 µM and the GI50 [38] was 557 nM. It also gave a TGI [38] of 8.35 µM, a GI50 [39] of 406 nM and a TGI [39] of 3.48 µM. The GI50 [40] was 1560 nM, the TGI [40] was 10.9 µM and the GI50 [41] was 477 nM. It also gave a TGI [41] of 2070 nM, a GI50 [42] of 2110 nM and a TGI [42] of 10.6 µM. For the same compound, the GI50 [43] was over 76.4 µM, the TGI [43] was over 100 µM and the GI50 [44] was 1490 nM. The TGI [44] was 3.9 µM, the GI50 [45] was 523 nM and the TGI [45] was 6.77 µM. It also gave a GI50 [46] of 2310 nM, a TGI [46] of 29.5 µM and a GI50 [47] of 483 nM. For the same compound, the TGI [47] was 11.9 µM, the GI50 [48] was 1620 nM and the TGI [48] was 11.7 µM. For the same compound, the GI50 [49] was 295 nM, the TGI [49] was 1430 nM and the GI50 [50] was 2190 nM. It also gave a TGI [50] of 12.2 µM, a GI50 [51] of 2090 nM and a TGI [51] of 5.54 µM. For the same compound, the GI50 [52] was 589 nM, the TGI [52] was 2940 nM and the GI50 [53] was 654 nM. For the same compound, the TGI [53] was 1960 nM, the GI50 [54] was 1710 nM and the TGI [54] was 5.58 µM. The GI50 [55] was 9.31 µM, the TGI [55] was 58.8 µM and the GI50 [56] was 1040 nM. It also gave a TGI [56] of 12.4 µM, a GI50 [57] of 2260 nM and a TGI [57] of 6.47 µM. It also gave a GI50 [58] of 1630 nM and a TGI [58] of 6.34 µM.
